Data set [1] has as its target T1, Alpha-1D adrenergic receptor (Homo sapiens) (UniProt P25100).
T1 sequence (whole entry): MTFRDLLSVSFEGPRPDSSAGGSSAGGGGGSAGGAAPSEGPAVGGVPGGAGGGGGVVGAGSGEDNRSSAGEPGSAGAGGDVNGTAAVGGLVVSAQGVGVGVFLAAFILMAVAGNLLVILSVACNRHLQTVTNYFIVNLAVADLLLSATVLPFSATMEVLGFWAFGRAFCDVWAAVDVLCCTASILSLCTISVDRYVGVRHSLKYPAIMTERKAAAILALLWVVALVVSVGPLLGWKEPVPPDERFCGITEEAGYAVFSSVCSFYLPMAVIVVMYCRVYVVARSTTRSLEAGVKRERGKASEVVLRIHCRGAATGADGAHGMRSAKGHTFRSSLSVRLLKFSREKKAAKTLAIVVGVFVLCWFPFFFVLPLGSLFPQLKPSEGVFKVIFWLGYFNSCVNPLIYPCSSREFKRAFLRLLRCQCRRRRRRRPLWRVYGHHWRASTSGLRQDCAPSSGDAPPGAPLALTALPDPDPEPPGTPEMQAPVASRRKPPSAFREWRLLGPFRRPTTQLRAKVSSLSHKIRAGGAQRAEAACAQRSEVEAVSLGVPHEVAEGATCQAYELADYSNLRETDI
Nature of the data set: Inhibition of Adrenergic alpha1D at 10 µM in the Eurofins-Panlabs radioligand binding assay (Eurofins_assay_203400). The following applies: Compound concentration 10.0 uM.

Data set [2] addresses Epidermal growth factor receptor (Homo sapiens) (UniProt P00533). Nature of the data set: Inhibition of Epidermal Growth Factor (EGF) at 10 µM in the Eurofins-Panlabs radioligand binding assay (Eurofins_assay_225510). The settings on record: Compound concentration 10.0 uM.
The species named for data set [3] is Rattus norvegicus. As to the kind of experiment: Inhibition of Imidazoline I2, Central at 10 µM in the Eurofins-Panlabs radioligand binding assay (Eurofins_assay_241000). The arrangement: ligand concentration 2 nM. The following applies: Compound concentration 10.0 uM.
For data set [4], the species on record is Mus musculus. As to the kind of experiment: Inhibition of Interleukin IL-1 at 10 µM in the Eurofins-Panlabs radioligand binding assay (Eurofins_assay_243520). The arrangement: ligand concentration 0.1 nM. The following applies: Compound concentration 10.0 uM.
Data set [5] deals with Melatonin receptor type 1A (Homo sapiens) (UniProt P48039). As to the kind of experiment: Inhibition of Melatonin MT1 at 10 µM in the Eurofins-Panlabs radioligand binding assay (Eurofins_assay_251600). Further details: ligand concentration 0.05 nM; call rule not given here. The following applies: Compound concentration 10.0 uM.
Another data set is filed under the species Homo sapiens. As to the kind of experiment: Inhibition of Nicotinic Acetylcholine at compound concentration of 10.0 uM in the Eurofins-Panlabs radioligand binding assay (Eurofins_assay_258590). It is filed as protein-complex assay. The following applies: Compound concentration 10.0 uM.
Data set [6] has as its target Acetylcholine receptor subunit alpha (Homo sapiens) (UniProt P02708). As to the kind of experiment: Inhibition of Nicotinic Acetylcholine […], Bungarotoxin at 10 µM in the Eurofins-Panlabs radioligand binding assay (Eurofins_assay_258700). The settings on record: Compound concentration 10.0 uM.
The species entered for data set [7] is Mus musculus. Nature of the data set: Inhibition of Phorbol Ester at 10 µM in the Eurofins-Panlabs radioligand binding assay (Eurofins_assay_264500). The arrangement: ligand concentration 3 nM. The settings on record: Compound concentration 10.0 uM.
The target of another data set is hERG (KCNH2) (Homo sapiens, UniProt Q12809). As to the kind of experiment: Inhibition of Potassium Channel hERG at 10 µM in the Eurofins-Panlabs radioligand binding assay (Eurofins_assay_265900). The arrangement: ligand concentration 1.5 nM, non-specific ligand with concentration Astemizole, incubation time 60 min, incubation temperature 25 °C. The settings on record: HEK-293 cells that express human recombinant hERG, probe [3H] Astemizole, compound concentration 10 uM.

The target in data set [8] is Prostaglandin E2 receptor EP4 subtype (Homo sapiens) (UniProt P35408). As to the kind of experiment: Inhibition of Prostanoid EP4 at 10 µM in the Eurofins-Panlabs radioligand binding assay (Eurofins_assay_268420). Further details: ligand concentration 1 nM. The settings on record: Compound concentration 10.0 uM.
Data set [9] addresses Sigma non-opioid intracellular receptor 1 (Homo sapiens) (UniProt Q99720). As to the kind of experiment: Inhibition of Sigma 1 at 10 µM in the Eurofins-Panlabs radioligand binding assay (Eurofins_assay_278110). Further details: ligand concentration 8 nM. The following applies: Compound concentration 10.0 uM.
For data set [10], the system named is Platelet. Nature of the data set: Inhibition of platelet aggregation (human plasma, TRAP-6) (IC90).
Data set [11] deals with Histamine H3 receptor (Homo sapiens) (UniProt Q9Y5N1). Nature of the data set: Histamine H3 Eurofins-Panlabs radioligand binding assay. The following applies: Compound concentration 10.0 uM.
In data set [12] the target is SRSF protein kinase 1 (Homo sapiens) (UniProt Q96SB4). The following applies: Compound concentration 1000.0 nM.
Data set [13] concerns the target Testis-specific serine/threonine-protein kinase 3 (Homo sapiens) (UniProt Q96PN8). The following applies: Compound concentration 1000.0 nM.
The target of data set [14] is Sodium-dependent noradrenaline transporter (Homo sapiens) (UniProt P23975). The following applies: Compound concentration 10.0 uM.
In data set [15] the target is Adenosine receptor A2a (Homo sapiens) (UniProt P29274). The following applies: Compound concentration 10.0 uM.
The target of data set [16] is T2, Alpha-1A adrenergic receptor (Homo sapiens) (UniProt P35348).
T2 sequence (whole entry): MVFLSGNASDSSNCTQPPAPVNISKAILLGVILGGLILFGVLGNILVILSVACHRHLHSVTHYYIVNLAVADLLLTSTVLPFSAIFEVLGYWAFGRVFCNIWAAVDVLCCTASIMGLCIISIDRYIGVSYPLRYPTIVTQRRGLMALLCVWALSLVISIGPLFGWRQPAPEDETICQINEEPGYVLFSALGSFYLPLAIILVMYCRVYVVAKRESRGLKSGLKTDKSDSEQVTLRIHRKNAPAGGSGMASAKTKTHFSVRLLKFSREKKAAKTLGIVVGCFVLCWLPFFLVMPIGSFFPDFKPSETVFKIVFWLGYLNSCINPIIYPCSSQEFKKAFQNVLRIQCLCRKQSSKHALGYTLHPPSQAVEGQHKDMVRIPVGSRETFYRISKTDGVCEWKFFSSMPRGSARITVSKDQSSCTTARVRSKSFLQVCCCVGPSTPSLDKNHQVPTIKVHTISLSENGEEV
The following applies: Rattus norvegicus; Compound concentration 10.0 uM.

The target of data set [17] is D(2) dopamine receptor (Homo sapiens) (UniProt P14416). The following applies: Compound concentration 10.0 uM.
Data set [18] concerns the target D(3) dopamine receptor (Homo sapiens) (UniProt P35462). The settings on record: Compound concentration 10.0 uM.
Data set [19] has as its target Estrogen receptor (Homo sapiens) (UniProt P03372). The following applies: Compound concentration 10.0 uM.
Data set [20] has as its target Glutamate NMDA receptor (Rattus norvegicus) (UniProt P35439+Q00959+Q00960+Q00961+Q62645+Q8VHN2+Q9R1M7). The following applies: Compound concentration 10.0 uM.
Data set [21] addresses Histamine H1 receptor (Homo sapiens) (UniProt P35367). The following applies: Compound concentration 10.0 uM.
In data set [22] the target is Kappa-type opioid receptor (Homo sapiens) (UniProt P41145). The following applies: Compound concentration 10.0 uM.
Data set [23] is filed under the species Rattus norvegicus. The following applies: Compound concentration 10.0 uM.
The target in data set [24] is Sodium-dependent serotonin transporter (Homo sapiens) (UniProt P31645). The settings on record: Compound concentration 10.0 uM.
Data set [25] relates to Platelet. Nature of the data set: Inhibition of platelet aggregation (human plasma, TRAP-6). Format: cell-based.
Data set [26] addresses Beta-1 adrenergic receptor (Homo sapiens) (UniProt P08588). The settings on record: Compound concentration 10.0 uM.

SMILES strings stand for the structures. Some results are limits rather than exact numbers.

Testis-specific serine/threonine-protein kinase 3 (Homo sapiens), sequence (Q96PN8 whole entry): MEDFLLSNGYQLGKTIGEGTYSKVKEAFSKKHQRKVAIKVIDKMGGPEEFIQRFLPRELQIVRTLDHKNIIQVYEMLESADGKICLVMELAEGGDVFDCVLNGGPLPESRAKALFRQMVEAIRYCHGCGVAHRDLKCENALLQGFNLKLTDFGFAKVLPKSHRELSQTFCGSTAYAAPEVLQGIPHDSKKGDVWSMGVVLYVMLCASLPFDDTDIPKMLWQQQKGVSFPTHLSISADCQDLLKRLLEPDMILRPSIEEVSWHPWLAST
SRSF protein kinase 1 (Homo sapiens), sequence (Q96SB4 whole entry): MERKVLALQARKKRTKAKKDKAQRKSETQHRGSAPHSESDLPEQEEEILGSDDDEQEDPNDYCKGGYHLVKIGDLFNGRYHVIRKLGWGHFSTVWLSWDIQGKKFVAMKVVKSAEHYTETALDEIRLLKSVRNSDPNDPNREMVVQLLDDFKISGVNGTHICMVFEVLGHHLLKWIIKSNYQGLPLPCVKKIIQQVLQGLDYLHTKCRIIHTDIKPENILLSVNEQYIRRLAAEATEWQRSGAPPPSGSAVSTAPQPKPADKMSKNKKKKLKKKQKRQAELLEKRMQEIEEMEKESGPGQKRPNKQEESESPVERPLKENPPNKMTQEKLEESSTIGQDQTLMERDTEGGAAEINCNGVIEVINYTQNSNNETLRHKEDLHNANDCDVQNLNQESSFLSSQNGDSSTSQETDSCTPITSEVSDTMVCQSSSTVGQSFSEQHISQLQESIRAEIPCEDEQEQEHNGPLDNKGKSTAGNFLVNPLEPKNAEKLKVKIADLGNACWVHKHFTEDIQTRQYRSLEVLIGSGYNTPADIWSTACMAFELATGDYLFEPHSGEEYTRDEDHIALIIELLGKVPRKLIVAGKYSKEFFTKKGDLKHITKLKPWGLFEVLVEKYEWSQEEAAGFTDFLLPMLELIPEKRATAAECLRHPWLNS
D(3) dopamine receptor (Homo sapiens), sequence (P35462 whole entry): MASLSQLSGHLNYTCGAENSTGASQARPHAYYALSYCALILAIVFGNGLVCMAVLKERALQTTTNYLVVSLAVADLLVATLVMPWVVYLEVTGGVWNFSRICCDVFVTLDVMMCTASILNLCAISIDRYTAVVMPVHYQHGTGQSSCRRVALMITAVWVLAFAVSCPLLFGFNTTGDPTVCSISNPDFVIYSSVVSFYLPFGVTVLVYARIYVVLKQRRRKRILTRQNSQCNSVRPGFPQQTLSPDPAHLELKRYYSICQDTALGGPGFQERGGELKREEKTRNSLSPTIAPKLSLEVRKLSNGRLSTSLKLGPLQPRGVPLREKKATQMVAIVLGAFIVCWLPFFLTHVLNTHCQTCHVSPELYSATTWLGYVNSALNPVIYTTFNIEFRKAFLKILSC
Kappa-type opioid receptor (Homo sapiens), sequence (P41145 whole entry): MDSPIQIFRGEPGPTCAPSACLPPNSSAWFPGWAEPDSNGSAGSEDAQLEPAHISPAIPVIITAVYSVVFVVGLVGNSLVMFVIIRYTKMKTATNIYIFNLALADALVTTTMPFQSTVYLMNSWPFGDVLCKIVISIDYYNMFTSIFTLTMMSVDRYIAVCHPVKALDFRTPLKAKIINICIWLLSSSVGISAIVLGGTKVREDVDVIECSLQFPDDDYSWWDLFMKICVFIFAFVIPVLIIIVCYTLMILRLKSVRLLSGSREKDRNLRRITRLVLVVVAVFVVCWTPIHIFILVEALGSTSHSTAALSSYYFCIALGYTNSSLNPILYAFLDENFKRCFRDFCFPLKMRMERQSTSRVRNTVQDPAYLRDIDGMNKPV
D(2) dopamine receptor (Homo sapiens), sequence (P14416 whole entry): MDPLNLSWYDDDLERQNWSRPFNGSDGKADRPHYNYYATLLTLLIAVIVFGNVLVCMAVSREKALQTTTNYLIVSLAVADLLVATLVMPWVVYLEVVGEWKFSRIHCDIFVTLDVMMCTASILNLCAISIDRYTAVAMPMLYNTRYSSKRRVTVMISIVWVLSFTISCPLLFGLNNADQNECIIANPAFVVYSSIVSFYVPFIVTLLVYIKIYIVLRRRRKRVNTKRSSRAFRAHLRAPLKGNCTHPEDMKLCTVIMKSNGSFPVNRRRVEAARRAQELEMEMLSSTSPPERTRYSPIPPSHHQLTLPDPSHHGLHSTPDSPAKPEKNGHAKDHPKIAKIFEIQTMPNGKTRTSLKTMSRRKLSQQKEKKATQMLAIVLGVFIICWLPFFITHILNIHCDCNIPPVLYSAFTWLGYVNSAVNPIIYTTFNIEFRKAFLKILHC
Sodium-dependent serotonin transporter (Homo sapiens), sequence (P31645 whole entry, looked up): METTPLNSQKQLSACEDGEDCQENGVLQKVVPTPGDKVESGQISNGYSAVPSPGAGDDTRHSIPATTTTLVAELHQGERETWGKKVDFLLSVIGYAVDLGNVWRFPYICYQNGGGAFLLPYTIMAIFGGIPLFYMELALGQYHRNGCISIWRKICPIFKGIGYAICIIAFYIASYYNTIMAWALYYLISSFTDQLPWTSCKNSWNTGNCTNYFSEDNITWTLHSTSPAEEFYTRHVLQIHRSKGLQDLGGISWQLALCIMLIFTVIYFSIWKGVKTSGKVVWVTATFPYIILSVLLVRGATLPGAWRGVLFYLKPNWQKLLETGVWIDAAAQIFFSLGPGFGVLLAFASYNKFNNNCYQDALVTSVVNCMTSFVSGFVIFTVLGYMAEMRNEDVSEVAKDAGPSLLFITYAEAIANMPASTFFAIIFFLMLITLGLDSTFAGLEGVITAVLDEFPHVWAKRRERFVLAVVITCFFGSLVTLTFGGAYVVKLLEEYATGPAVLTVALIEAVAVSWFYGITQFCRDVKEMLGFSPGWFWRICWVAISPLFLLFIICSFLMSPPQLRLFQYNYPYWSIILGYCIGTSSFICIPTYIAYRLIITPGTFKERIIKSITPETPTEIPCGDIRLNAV
Adenosine receptor A2a (Homo sapiens), sequence (P29274 whole entry): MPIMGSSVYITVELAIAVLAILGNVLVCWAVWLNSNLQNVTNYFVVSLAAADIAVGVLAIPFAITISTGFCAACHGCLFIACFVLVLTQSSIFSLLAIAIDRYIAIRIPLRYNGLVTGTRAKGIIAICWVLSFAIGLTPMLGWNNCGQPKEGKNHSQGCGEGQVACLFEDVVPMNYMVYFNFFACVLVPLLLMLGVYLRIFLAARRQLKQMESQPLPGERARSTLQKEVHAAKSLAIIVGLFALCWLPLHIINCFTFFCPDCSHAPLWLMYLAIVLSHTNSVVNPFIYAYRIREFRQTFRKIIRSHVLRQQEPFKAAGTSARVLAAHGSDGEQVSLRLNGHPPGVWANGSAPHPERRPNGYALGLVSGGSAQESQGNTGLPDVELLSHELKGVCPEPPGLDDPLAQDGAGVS
hERG (KCNH2), sequence (Q12809 whole entry): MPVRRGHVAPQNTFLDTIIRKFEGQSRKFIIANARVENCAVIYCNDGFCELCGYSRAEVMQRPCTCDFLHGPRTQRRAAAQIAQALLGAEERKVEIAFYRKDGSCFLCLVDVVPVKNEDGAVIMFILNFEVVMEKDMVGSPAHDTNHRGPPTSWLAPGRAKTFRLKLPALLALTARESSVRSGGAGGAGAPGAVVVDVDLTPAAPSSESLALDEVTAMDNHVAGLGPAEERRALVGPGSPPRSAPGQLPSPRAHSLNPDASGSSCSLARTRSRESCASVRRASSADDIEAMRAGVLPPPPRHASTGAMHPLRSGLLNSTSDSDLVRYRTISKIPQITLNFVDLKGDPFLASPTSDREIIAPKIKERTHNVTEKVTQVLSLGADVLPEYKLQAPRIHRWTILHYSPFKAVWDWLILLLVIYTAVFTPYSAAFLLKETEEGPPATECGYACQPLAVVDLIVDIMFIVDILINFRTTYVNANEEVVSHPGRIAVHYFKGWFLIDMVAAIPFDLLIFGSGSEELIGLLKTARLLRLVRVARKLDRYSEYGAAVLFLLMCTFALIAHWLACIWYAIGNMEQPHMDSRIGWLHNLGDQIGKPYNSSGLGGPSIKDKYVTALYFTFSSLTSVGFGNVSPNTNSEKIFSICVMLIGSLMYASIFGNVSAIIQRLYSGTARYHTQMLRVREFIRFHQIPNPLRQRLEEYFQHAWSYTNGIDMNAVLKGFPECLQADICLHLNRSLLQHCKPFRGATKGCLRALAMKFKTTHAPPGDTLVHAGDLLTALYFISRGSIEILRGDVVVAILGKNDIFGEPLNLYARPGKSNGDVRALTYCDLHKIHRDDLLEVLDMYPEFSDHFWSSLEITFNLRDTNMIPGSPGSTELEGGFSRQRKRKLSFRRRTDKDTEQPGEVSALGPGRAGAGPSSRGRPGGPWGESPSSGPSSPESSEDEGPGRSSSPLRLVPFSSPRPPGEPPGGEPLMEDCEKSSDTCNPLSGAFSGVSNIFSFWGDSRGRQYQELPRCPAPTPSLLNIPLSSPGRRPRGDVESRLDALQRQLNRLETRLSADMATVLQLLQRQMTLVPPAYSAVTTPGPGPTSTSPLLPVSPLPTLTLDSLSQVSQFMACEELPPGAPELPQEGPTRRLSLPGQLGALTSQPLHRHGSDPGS
Sigma non-opioid intracellular receptor 1 (Homo sapiens), sequence (Q99720 whole entry): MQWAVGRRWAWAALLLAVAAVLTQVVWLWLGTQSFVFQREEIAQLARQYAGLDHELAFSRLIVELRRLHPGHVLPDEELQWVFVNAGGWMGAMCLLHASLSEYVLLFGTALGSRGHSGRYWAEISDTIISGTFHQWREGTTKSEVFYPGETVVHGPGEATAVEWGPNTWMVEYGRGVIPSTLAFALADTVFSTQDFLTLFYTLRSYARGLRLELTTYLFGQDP
Melatonin receptor type 1A (Homo sapiens), sequence (P48039 whole entry): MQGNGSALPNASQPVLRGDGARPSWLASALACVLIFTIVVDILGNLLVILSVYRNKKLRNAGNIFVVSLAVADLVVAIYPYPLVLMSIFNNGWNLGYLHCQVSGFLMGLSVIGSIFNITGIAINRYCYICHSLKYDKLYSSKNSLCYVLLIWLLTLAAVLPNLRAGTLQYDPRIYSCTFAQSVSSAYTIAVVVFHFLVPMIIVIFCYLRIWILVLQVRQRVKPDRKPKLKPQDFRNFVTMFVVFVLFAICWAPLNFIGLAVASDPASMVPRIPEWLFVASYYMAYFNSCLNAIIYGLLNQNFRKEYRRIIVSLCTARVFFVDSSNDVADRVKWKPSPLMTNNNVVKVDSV

As to `O=C(N1CCS(=O)(=O)CC1)N1C[C@H](c2ccc(OC(F)(F)F)cc2)C[C@H](c2nc(C3CC3)no2)C1` [BAY-386], the inhibition in [1] was -4%; in data set [2], -7%; in the data set filed under Rattus norvegicus [3], 0%; in the data set filed under Mus musculus [4], 16%; in [5] it was 14%; in the data set listed under Homo sapiens, -4%. Moreover, the inhibition is -2% in data set [6]; 5% in the data set listed under Mus musculus [7]; 1% in [8]; 16% in data set [9]; -3% in data set [11]; -1.24% in [14]. Further, the inhibition in [15] is 0%; in data set [16], 1%; in data set [17], 1%; in data set [18], -1%; in [19], -1%; in [20], -2%. In addition, the inhibition was 0% in [21], -3% in data set [22], 14% in the data set filed under Rattus norvegicus [23] and 3% in data set [24]. Besides, the inhibition at 60 min, 10 µM on hERG (KCNH2) is given as 22% (not active). For the same compound, the IC90 with Platelet [10] turned out to be 680 nM. Moreover, the residual activity in data set [12] and in [13] was 100% each time.
On to `Cc1noc([C@H]2C[C@@H](c3ccc(C(F)(F)F)cc3)CN(C(=O)N3CCS(=O)(=O)C3)C2)n1` [BAY-448], for which the IC50 with Platelet [25] was > 10000 nM (not active). For the same compound, the residual activity in data set [12] and in data set [13] was 100% in each case. For the same compound, in data set [26], the inhibition was 3.66%.

The values above are taken from ChEMBL document CHEMBL4507269, “Data for DCP probe BAY-386” (2021).
